The assay deals with angiotensin II receptors. Kind of assay: Inhibition of the pressor response to angiotensin II in conscious cardiomyopathic hamsters. It counts as in vivo, hamsters of the BIO TO-2 strain. The note with it: for Change in mean arterial pressure: pressor response to angiotensin II 100 ng/kg i.v. The procedure: The studies described in this experiment were conducted in male hamsters of the BIO TO-2 strain when they were approximately 260 days of age and weighed on average 115 g. These animals develop a genetic form of cardiomyopathy that progresses uniformly among animals through different stages of heart failure. By 240 - 300 days of age the cardiomyopathic hamsters are characterized (as compared with control hamsters) by low mean arterial pressure, a 40% reduction in cardiac output and a decrease in renal blood flow. They display elevated cardiac filling pressure, depressed ventricular function, increased peripheral vascular resistance and have an 8-10-fold increase in plasma atrial natriuretic peptide concentration.
The experiments were conducted in conscious, unrestrained, cardiomyphathic hamsters three hours after placement of cardivascular catheters using brief anesthesia. The catheters allowed measurement of mean arterial pressure, left ventricular end diastolic pressure, left ventricular systolic pressure and heart rate, and provided a means for the administration of agents intravenously.
Preliminary experiments were conducted in conscious cardiomyopathic hamsters to determine a dose regimen of BMS 186295 that would nearly completely block the pressor response to angiotensin II for at least two hours. The pressor responses to two challenges of angiotensin II (100 ng/kg, i.v. dissolved in 0.9% sodium chloride, 1 ml/kg) were determined. This dose of angiotensin II produced over a 30% increase in mean arterial pressure. Based on the preliminary experiments, BMS 186295 was administered to 5 cardiomyopathic hamsters at 30 µmol/kg, i.v. followed by continuous i.v. infusion at 1 µmol/kg per min. Challenges of angiotensin II were then repeated at 10- to 30-minute intervals up to 150 minutes following the bolus injection of BMS 186295.

For `CCCCC1=NC2(CCCC2)C(=O)N1Cc1ccc(-c2ccccc2-c2nnn[nH]2)cc1` [BMS 186295, 2-butyl-6,7,8,9-tetrahydro-3-[[2'-(1H-tetrazol-5-yl)[1,1'-biphenyl]-4-yl]-methyl]-1,3-diazaspiro[4.4]nonan-4-one], where the note is “following 30 µmol/kg, i.v. then 1 µmol/kg per min, up to 150 minutes”, the “pressor responses to angiotensin II, of the response before the administration of the inhibitor” value is “less than 17%”. For the same compound, the “Change in mean arterial pressure” value by setting is: (10′ after 30 µmol/kg, i.v. followed by 1 µmol/kg/min, i.v.) 3±2 mm Hg; (20′ after 30 µmol/kg, i.v. followed by 1 µmol/kg/min, i.v.) 2±1 mm Hg; (30′ after 30 µmol/kg, i.v. followed by 1 µmol/kg/min, i.v.) 3±2 mm Hg; (40′ after 30 µmol/kg, i.v. followed by 1 µmol/kg/min, i.v.) 2±1 mm Hg; (50′ after 30 µmol/kg, i.v. followed by 1 µmol/kg/min, i.v.) 1±1 mm Hg; (60′ after 30 µmol/kg, i.v. followed by 1 µmol/kg/min, i.v.) 4±1 mm Hg. Also, the “Change in mean arterial pressure” value is, setting by setting: (70′ after 30 µmol/kg, i.v. followed by 1 µmol/kg/min, i.v.) 5±2 mm Hg; (80′ after 30 µmol/kg, i.v. followed by 1 µmol/kg/min, i.v.) 4±1 mm Hg; (90′′ after 30 µmol/kg, i.v. followed by 1 µmol/kg/min, i.v.) 3±1 mm Hg; (150′ after 30 µmol/kg, i.v. followed by 1 µmol/kg/min, i.v.) 2±1 mm Hg; (120 min after 30 µmol/kg, i.v. followed by 1 µmol/kg/min, i.v.) 3±1 mm Hg; (-10′, before BMS-186295) 31±3 mm Hg. The “Change in mean arterial pressure” value (-20′, before BMS-186295) worked out at 29±2 mm Hg.

The values above are taken from patent EP0726072A2, “Composition for the treatment of hypertension and congestive heart failure, containing an angiotensin II antagonist and an endopeptidase inhibitor” (BRISTOL-MYERS SQUIBB COMPANY, priority 1995, dated 1996).
